Patent US7169756B2, “Streptogramin antibiotics” (priority 2005, dated 2007)
Numbered stars: 1 amine (or outer) side, 2 acyl side, 3 side chain; on linkers, the order of the positions; unused ones are H or OH. Bridge positions count the residues as written; N and C are the ends. Square brackets hold non-standard residues; d marks the D form. Peptide text beside a SMILES is read from it. * marks the point of attachment. X1 = O=C1C[C@@H](C(=O)[*:2])N([*:1])C[C@H]1CS[C@@H]1CN2CCC1CC2; NMePhe(4-NMe2) = CN[C@@H](Cc1ccc(N(C)C)cc1)C(=O)O; Picolinoyl(3-OH) = O=C(c1ncccc1O)*; Phg = N[C@H](C(=O)O)c1ccccc1; Orn = NCCC[C@H](N)C(=O)O; dAbu = CC[C@@H](N)C(=O)O; Dap = NC[C@H](N)C(=O)O

Experiments:
[1] = tested on: Escherichia coli BAS901; experiment: disk assay, zone of growth inhibition; type: cell-based; settings: Escherichia coli BAS901, hyperpermeable, 16 hr at 37° C.
Method: Partially purified material from these reactions was used to test their antibiotic properties in disk diffusion susceptibility assays using E. coli BAS901.
The antibiotic activity of the peptides synthesized in this study was initially assayed using a disk assay where samples were applied to sterile paper disks placed on a fresh lawn of bacterial culture on appropriate agar plates as required by the organism. These were then incubated for 16 hr at 37° C. and the zone of growth inhibition surrounding the disks recorded. For quantitative assessment of antibiotic activity in liquid culture, the minimal inhibitory concentration (MIC) of peptides was determined by serial dilution studies. The peptides and standard antibiotics were dissolved in DMSO and the final concentration of DMSO in the liquid cultures was 5%. Both S. aureus RN4220 and E. coli BAS901 were able to grow efficiently at this level of DMSO.
Crude material from the initial synthesis reactions was used to test the potential of the analogues as antibiotics in susceptibility assays where a solution of the compound was placed on a paper disk on a lawn of bacteria. As described above, E. coli BAS901 is deficient in the Imp/OstA protein, an outer membrane protein, involved in cell envelope biogenesis (1, 5). […] These were then incubated for 16 hrs at 37° C. and the zone of growth inhibition surrounding the disks recorded.

[2] = tested on: B. subtilis 1A752; experiment: checker-board synergy test with dalfopristin; type: cell-based, Bacillus subtilis; settings: microtiter plates, checker-board technique
Description: Quinupristin and dalfopristin act in a synergistic manner.

Structure (SMILES)	Zone of Inhibition [1] [cm]	synergy with dalfopristin [2]
CC[C@H]1NC(=O)[C@@H](NC(=O)c2ncccc2O)[C@@H](C)OC(=O)[C@H](c2ccccc2)NC(=O)[C@@H]2CC(=O)[C@H](CS[C@@H]3CN4CCC3CC4)CN2C(=O)[C@H](Cc2ccc(N(C)C)cc2)N(C)C(=O)[C@@H]2CCCN2C1=O [Quinupristin, quinupristin, reference compound] ({Picolinoyl(3-OH)}-T[dAbu]P[NMePhe(4-NMe2)][X1][Phg]; ester 1-C)	2.2	
CC(C)C[C@@H]1NC(=O)[C@H](CCCN)NC(=O)[C@H]([C@@H](C)O)NC(=O)[C@@H](NC(=O)c2ncccc2O)CNC(=O)[C@H](Cc2ccccc2)NC(=O)[C@@H]2CCCN2C(=O)[C@@H](Cc2ccccc2)NC1=O [Compound 5] ({Picolinoyl(3-OH)}-[Dap]T[Orn]L[dF]PF; lactam 1-C)		additive, not synergistic
